ChEMBL document CHEMBL4330060, “Design and development of some phenyl benzoxazole derivatives as a potent acetylcholinesterase inhibitor with antioxidant property to enhance learning and memory” (Eur J Med Chem, 2019)
pIC50, pKi: −log10 of the molar value. Activity calls are given as the source filed them. The rule behind the calls is not given here.

Experiments:
[1] = Antioxidant activity assessed as DPPH radical scavenging activity at 10 uM after 30 mins under dark condition relative to control; type: functional
Acetylcholinesterase [2] = biological target: T1, Acetylcholinesterase (Electrophorus electricus, UniProt O42275); test: Inhibition of Electric eel AChE using acetylthiocholine iodide as substrate after 10 mins measured for every mins by Ellman's method
T1 sequence (O42275 whole entry): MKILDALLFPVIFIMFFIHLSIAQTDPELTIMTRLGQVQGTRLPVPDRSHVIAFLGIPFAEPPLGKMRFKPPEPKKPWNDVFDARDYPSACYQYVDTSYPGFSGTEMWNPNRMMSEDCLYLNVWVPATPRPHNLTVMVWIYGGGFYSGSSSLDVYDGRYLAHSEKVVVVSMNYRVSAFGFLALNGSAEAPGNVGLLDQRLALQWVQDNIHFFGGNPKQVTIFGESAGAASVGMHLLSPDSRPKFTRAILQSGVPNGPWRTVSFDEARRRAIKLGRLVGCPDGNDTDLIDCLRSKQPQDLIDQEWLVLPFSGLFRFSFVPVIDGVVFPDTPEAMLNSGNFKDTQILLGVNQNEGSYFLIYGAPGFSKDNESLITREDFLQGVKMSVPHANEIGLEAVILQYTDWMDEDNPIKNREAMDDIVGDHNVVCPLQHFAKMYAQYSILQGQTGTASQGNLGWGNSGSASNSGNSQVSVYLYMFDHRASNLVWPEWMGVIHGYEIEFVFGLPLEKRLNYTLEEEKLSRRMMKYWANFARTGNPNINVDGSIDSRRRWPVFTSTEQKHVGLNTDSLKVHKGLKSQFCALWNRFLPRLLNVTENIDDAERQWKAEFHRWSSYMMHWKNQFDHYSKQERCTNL

Cholinesterase = Cholinesterase (Homo sapiens, UniProt P06276); test: Inhibition of human serum BChE using butyrylthiocholine iodide as substrate after 10 mins measured for every mins by Ellman's method
Chain of Cholinesterase (P06276 whole entry): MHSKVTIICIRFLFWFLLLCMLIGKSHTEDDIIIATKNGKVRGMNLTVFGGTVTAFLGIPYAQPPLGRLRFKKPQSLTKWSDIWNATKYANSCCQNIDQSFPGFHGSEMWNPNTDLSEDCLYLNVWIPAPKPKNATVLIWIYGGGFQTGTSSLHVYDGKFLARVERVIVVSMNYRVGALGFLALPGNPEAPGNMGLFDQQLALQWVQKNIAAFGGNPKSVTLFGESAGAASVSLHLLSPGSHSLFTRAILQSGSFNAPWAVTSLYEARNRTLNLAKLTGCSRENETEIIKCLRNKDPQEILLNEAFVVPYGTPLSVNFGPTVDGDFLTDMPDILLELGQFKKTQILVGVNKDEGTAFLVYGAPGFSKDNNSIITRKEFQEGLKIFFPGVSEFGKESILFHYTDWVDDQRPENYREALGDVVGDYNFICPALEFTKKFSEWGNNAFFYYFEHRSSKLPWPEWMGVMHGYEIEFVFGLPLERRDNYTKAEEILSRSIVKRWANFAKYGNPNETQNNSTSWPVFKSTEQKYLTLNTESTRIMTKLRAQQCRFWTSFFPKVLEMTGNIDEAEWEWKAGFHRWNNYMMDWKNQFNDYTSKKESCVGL

[3] = Selectivity index, ratio of IC50 for human serum BChE to IC50 for Electric eel AChE
Mus musculus [4] = test: In vivo antioxidant activity in Swiss albino mouse brain assessed as increase in GSH level at 5 mg/kg, ip qd pretreated for 1 hr followed by scopolamine addition; type: functional, organism-based
Mus musculus [5] = test: Cognitive enhancing effect in Swiss albino mouse assessed as reversal of scopolamine-induced reduction in spontaneous alteration score at 1 mg/kg, ip qd pretreated for 1 hr followed by scopolamine addition by Y-maze test; type: functional, organism-based
Mus musculus [6] = test: Cognitive enhancing effect in Swiss albino mouse assessed as reversal of scopolamine-induced anxiety by measuring increase in number of novel arm entries at 1 to 20 mg/kg, ip qd pretreated for 1 hr followed by scopolamine addition by Y-maze test; type: functional, organism-based
Mus musculus [7] = test: Cognitive enhancing effect in Swiss albino mouse assessed as reversal of scopolamine-induced reduction in spontaneous alteration score at 5 mg/kg, ip qd pretreated for 1 hr followed by scopolamine addition by Y-maze test; type: functional, organism-based
[8] = Acute toxicity in Swiss albino mouse assessed as mortality at 100 mg/kg, po measured at 14 days post administration; type: organism-based; details: in vivo, 336 h
[9] = Acute toxicity in Swiss albino mouse assessed as abnormal behavior at 100 mg/kg, po measured at 14 days post administration; type: organism-based; details: in vivo, 336 h
Mus musculus [10] = test: Ex vivo inhibition of AChE in Swiss albino mouse brain at 5 mg/kg, ip qd pretreated for 1 hr followed by scopolamine addition using acetylthiocholine iodide as substrate by Ellman's method; type: functional, organism-based
in vitro = details: PAMPA, pH 7.4
Description: Effective permeability of the compound at pH 7.4 after 18 hrs by PAMPA-BBB assay

Mus musculus [11] = test: In vivo antioxidant activity in Swiss albino mouse brain assessed as increase in catalase activity by measuring decrease in H2O2 level at 5 mg/kg, ip qd pretreated for 1 hr followed by scopolamine addition; type: functional, organism-based
Mus musculus [12] = test: Cognitive enhancing effect in Swiss albino mouse assessed as reversal of scopolamine-induced cainophobia behavior by measuring increase in number of novel arm entries at 1 to 20 mg/kg, ip qd pretreated for 1 hr followed by scopolamine addition by Y-maze test; type: functional, organism-based
[13] = Neurotoxicity in Swiss albino mouse assessed as motor coordination by measuring fall off time at 5 mg/kg, po after 1 hr by rota rod test (reference value: 310.61 +/- 26.64 sec); type: toxicity, organism-based; details: in vivo
[14] = biological target: Acetylcholinesterase (Homo sapiens) (UniProt P22303); test: Displacement of Propidium iodide from PAS region of AChE (unknown origin) after 20 hrs by fluorescence assay relative to control; details: concentration not given here
Chain of Acetylcholinesterase (Homo sapiens) (P22303 whole entry): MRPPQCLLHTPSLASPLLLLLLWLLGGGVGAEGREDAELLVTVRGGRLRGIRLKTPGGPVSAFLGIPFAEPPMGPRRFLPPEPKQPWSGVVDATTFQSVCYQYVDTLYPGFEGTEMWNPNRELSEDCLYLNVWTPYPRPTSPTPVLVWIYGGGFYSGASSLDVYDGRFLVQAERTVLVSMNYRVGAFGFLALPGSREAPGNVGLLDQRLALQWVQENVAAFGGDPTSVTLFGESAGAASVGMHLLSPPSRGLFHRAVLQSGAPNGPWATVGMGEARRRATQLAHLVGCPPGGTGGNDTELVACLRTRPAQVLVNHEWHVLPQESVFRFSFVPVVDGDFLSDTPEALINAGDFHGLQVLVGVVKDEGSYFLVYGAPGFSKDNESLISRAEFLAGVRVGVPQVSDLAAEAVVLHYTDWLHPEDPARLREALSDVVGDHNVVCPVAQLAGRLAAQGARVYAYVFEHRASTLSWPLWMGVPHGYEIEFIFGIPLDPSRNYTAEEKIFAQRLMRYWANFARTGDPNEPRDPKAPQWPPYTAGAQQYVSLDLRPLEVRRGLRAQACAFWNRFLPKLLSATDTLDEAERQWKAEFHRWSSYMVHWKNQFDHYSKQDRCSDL

Mus musculus [15] = test: In vivo antioxidant activity in Swiss albino mouse brain assessed as decrease in MDA level at 5 mg/kg, ip qd pretreated for 1 hr followed by scopolamine addition by TBARS assay; type: functional, organism-based
Acetylcholinesterase [16] = biological target: T1, Acetylcholinesterase; test: Inhibition of Electric eel AChE using acetylthiocholine iodide as substrate after 10 mins measured for every mins by Lineweaver-Burk plot analysis
[17] = Acute toxicity in Swiss albino mouse up to 100 mg/kg, po measured until 14 days; type: organism-based; details: in vivo, 336 h
Mus musculus [18] = test: In vivo antioxidant activity in Swiss albino mouse brain assessed as decrease in nitric oxide level at 5 mg/kg, ip qd pretreated for 1 hr followed by scopolamine addition by Griess reagent based assay; type: functional, organism-based
Mus musculus [19] = test: In vivo antioxidant activity in Swiss albino mouse brain assessed as increase in SOD level at 5 mg/kg, ip qd pretreated for 1 hr followed by scopolamine addition measured every 30 secs interval for 2 mins; type: functional, organism-based
Mus musculus [20] = test: Memory enhancing effect in Swiss albino mouse assessed as reversal of scopolamine-induced reduction in latency time at 1 mg/kg, ip qd pretreated for 1 hr followed by scopolamine addition by passive avoidance test; type: functional, organism-based
[21] = Effective permeability of the compound by PAMPA; type: ADME; details: read-out: Peff
Mus musculus [22] = test: Memory enhancing effect in Swiss albino mouse assessed as reversal of scopolamine-induced reduction in latency time at 5 mg/kg, ip qd pretreated for 1 hr followed by scopolamine addition by passive avoidance test; type: functional, organism-based

Row | Compound | Activity [1] [%] | pIC50 (Acetylcholinesterase [2]) | pIC50 (Cholinesterase) | further results
1 | O=[N+]([O-])c1ccc(NCC(O)CNc2ccc(-c3nc4ccccc4o3)cc2)cc1 (stereo unspecified) | 44.4 | 5.94 | < 4.30 | 
2 | CC(C)c1ccc(/C=N/c2ccc(-c3nc4ccccc4o3)cc2)cc1 | < 10 | < 4.30 | < 4.30 | 
3 | Clc1ccc(CNc2ccc(-c3nc4ccccc4o3)cc2)cc1 | 25.1 | 5.20 | < 4.30 | 
4 | S=C(Nc1ccc(Br)cc1)Nc1ccc(-c2nc3ccccc3o2)cc1 | 43.1 | 5.06 | < 4.30 | 
5 | S=C(Nc1ccc(Cl)cc1)Nc1ccc(-c2nc3ccccc3o2)cc1 | 40 | 4.90 | < 4.30 | 
6 | Oc1ccc(CNc2ccc(-c3nc4ccccc4o3)cc2)cc1 | 39.4 | 6.14 | 5.33 | Ratio IC50 [3]: 6.5
7 | Brc1ccc(CNc2ccc(-c3nc4ccccc4o3)cc2)cc1 | 18.5 | 5.07 | < 4.30 | 
8 | C(=N\c1ccc(-c2nc3ccccc3o2)cc1)/c1ccccc1 | < 10 | < 4.30 | < 4.30 | 
9 | OC(CNc1ccc(Br)cc1)CNc1ccc(-c2nc3ccccc3o2)cc1 (stereo unspecified) | 42.4 | 5.88 | < 4.30 | 
10 | OC(CNc1ccc(Cl)cc1)CNc1ccc(-c2nc3ccccc3o2)cc1 (stereo unspecified) | 49.6 | 6.44 | 5.64 | Activity (Mus musculus [4]): Active; Activity (Mus musculus [5]): inactive; Activity (Mus musculus [6]): Active; Activity (Mus musculus [7]): Active; Activity [8]: Non-Toxic; Activity [9]: Non-Toxic; inhibition (Mus musculus [10]): Active; Papp at 18 h (in vitro): 4.55 ×10⁻⁶ cm/s; Activity (Mus musculus [11]): Active; Ratio IC50 [3]: 6.3; Activity (Mus musculus [12]): Active; Time [13]: 298.75 s; inhibition [14]: 11.2%; Activity (Mus musculus [15]): Active; pKi (Acetylcholinesterase [16]): 6.72; Activity [17]: Non-Toxic; Activity (Mus musculus [18]): Active; Activity (Mus musculus [19]): Active
11 | CC(C)c1ccc(NC(=S)Nc2ccc(-c3nc4ccccc4o3)cc2)cc1 | 42.3 | < 4.30 | < 4.30 | 
12 | O=c1ccc2ccc(OCCCCCSc3nc4ccccc4o3)cc2o1 |  | 4.60 |  | 
13 | O=C1O[C@H]([C@@H](O)CO)C(O)=C1O | 56.6 |  |  | 
14 | Brc1ccc(/C=N/c2ccc(-c3nc4ccccc4o3)cc2)cc1 | < 10 | 4.43 | < 4.30 | 
15 | Oc1ccc(/C=N/c2ccc(-c3nc4ccccc4o3)cc2)cc1 | 31.8 | 6.03 | 4.57 | Ratio IC50 [3]: 28.7
16 | O=[N+]([O-])c1ccc(/C=N/c2ccc(-c3nc4ccccc4o3)cc2)cc1 | < 10 | 5.75 | < 4.30 | 
17 | COc1cc2c(cc1OC)C(=O)C(CC1CCN(Cc3ccccc3)CC1)C2 (stereo unspecified) [DONEPEZIL] | < 10 |  |  | Activity (Mus musculus [5]): Active; Time [13]: 167.75 s; Activity (Mus musculus [20]): Active
18 | S=C(Nc1ccccc1)Nc1ccc(-c2nc3ccccc3o2)cc1 | 45.3 | < 4.30 | < 4.30 | 
19 | O=[N+]([O-])c1ccc(CNc2ccc(-c3nc4ccccc4o3)cc2)cc1 | 22.7 | 4.62 | < 4.30 | 
20 | Oc1ccc(NCC(O)CNc2ccc(-c3nc4ccccc4o3)cc2)cc1 (stereo unspecified) | 50 | 6.09 | 5.56 | Ratio IC50 [3]: 3.4
21 | O=[N+]([O-])c1ccc(NC(=S)Nc2ccc(-c3nc4ccccc4o3)cc2)cc1 | 45.9 | 5.03 | < 4.30 | 
22 | Cc1nnc2n1-c1ccc(Cl)cc1C(c1ccccc1)=NC2 [ALPRAZOLAM] |  |  |  | Papp at 18 h (in vitro): 4.2 ×10⁻⁶ cm/s; Papp [21]: 5.4 ×10⁻⁶ cm/s
23 | c1ccc(CNc2ccc(-c3nc4ccccc4o3)cc2)cc1 | 24.1 | 5.14 | < 4.30 | 
24 | OC(CNc1ccccc1)CNc1ccc(-c2nc3ccccc3o2)cc1 (stereo unspecified) | 48.2 | 6.07 | 5.45 | Ratio IC50 [3]: 4.2
25 | Clc1ccc(/C=N/c2ccc(-c3nc4ccccc4o3)cc2)cc1 | < 10 | 5.64 | < 4.30 | 
26 | CN(C)C(=O)Oc1ccccc1-c1nc2ccccc2o1 |  | 4.24 |  | 
27 | Oc1ccc(NC(=S)Nc2ccc(-c3nc4ccccc4o3)cc2)cc1 | 50.2 | 6.05 | 4.56 | Ratio IC50 [3]: 31
28 | CC(C)c1ccc(CNc2ccc(-c3nc4ccccc4o3)cc2)cc1 | 27.5 | < 4.30 | < 4.30 | 
29 | O=c1cc(-c2ccccc2)c2ccc(NCCCSc3nc4ccccc4o3)cc2o1 |  | 4.89 |  | 
30 | CC(C)c1ccc(NCC(O)CNc2ccc(-c3nc4ccccc4o3)cc2)cc1 (stereo unspecified) | 39.1 | 5.10 | < 4.30 | Activity (Mus musculus [22]): Active
